Experimental data published in patent US20240351981A1, “NOVEL BISMALEIMIDE COMPOUNDS HAVING IMPROVED SOLUBILITY AND THEIR USE IN CURABLE COMPOSITIONS” (Evonik Operations GmbH, priority 2021, published 2024).

Assay: Solubility of bismaleimides in organic solvents (saturated solution, gravimetric)
Format: physicochemical
Settings: in comparison to other aliphatic bismaleimides
Procedure: The solubility of compounds in the present invention is determined as follows: • 10 g of a sample are weighed into a 100 ml conical flask. 50 ml of a solvent are added to the flask and the mixture is stirred with magnetic bar for 1 h at 25° C. to assure the formation of a saturated solution. If the entire sample is dissolved, additional portion of the sample should be added and the mixture should be stirred further for 1 h. In the end, a portion of undissolved material should be clearly seen at the bottom of the flask. After that, the supematant is filtered through a folded filter. Some 15 g of the filtrate are weighed into a tared round-bottom flask, and the solvent is evaporated to dryness on a rotary evaporator at 90° C. under reduced pressure. Finally, the flask is dried in a vacuum drying cabinet at 120° C. for 2 h under reduced pressure, cooled down to room temperature in a desiccator and weighed.
The solubility value is then calculated as:
The solubility of the example and comparative examples was determined as follows: • 10 g of a sample were weighed into a 100 ml conical flask. 50 ml of a solvent were added to the flask and the mixture was stirred with magnetic bar for 1 h at 25° C. to assure the formation of a saturated solution. If the entire sample was dissolved, additional portion of the sample should be added and the mixture should be stirred further for 1 h. […]

Solubility in different organic solvents (in words): highly soluble
Structure (SMILES): CC1CC(C(CN2C(=O)C=CC2=O)CN2C(=O)C=CC2=O)CC(C)(C)C1 (stereo not shown) [2-(3,3,5-trimethylcyclohexyl)propane-1,3-bismaleimide]
